Measurements taken from US7972390B2, “Methods for controlling crystal growth, crystallization, structures and phases in materials and systems” (GR Intellectual Reserve, LLC, priority 2003, dated 2011).

What was measured:
[1] = Example 8c: sugar solubility in sodium-lamp conditioned vs control water at room temperature; assay type: physicochemical; conditions: for Percent sugar by weight: 23.5° C.
Description: Source, Greeneville Municipal Water supply, Greeneville, Tenn. […] Length 12″.
One beaker “KK” was placed under a sodium lamp 112 for about three hours, as configured in FIG. 97f, while the other Beaker “IL” functioning as the control was placed in an incubator for about three hours at an internal temperature of about 28° C.
Sugar (about 300 grams) was then added to each beaker and stirred.

[2] = Example 8d: phenyl salicylate solubility in neon-lamp conditioned vs unconditioned acetone at room temperature; assay type: physicochemical; conditions: equilibrated about 20 hours
Description: Acetone (about 1 ml) was pipetted into small glass test tubes and stoppers placed in the tube. […] Tubes were conditioned under a neon lamp; (about 8 mW/cm^2) in an otherwise dark room for about 1.5 hours at about 28° C. ambient temperature. Tubes were also placed simultaneously in an incubator at about 28° C. for about 1.5 hours.
Phenyl salicylate (about 3.50 grams) was added to each tube leaving a layer undissolved on the bottom of each tube. The solutions were allowed to equilibrate overnight (about 20 hours). Solution was filtered over the crystals and 0.500 ml pipetted into fresh tubes.
After the acetone evaporated, dry weights of phenyl salicylate per ml dissolved in conditioned and unconditioned acetone were determined.

Row | Percent sugar by weight ([1]; Beaker KK: water under Na lamp three hours) | Percent sugar by weight ([1]; Beaker LL: control water 3 hours in incubator) | More sucrose by weight dissolved by conditioned water than by unconditioned control water ([1]; after three hours exposure of the water to the sodium lamp) | Average amount of phenyl salicylate dissolved ([2]; acetone conditioned under neon lamp about 1.5 hours) | Average amount of phenyl salicylate dissolved ([2]; unconditioned acetone (incubator about 1.5 hours)) | SMILES
1 | 39.1% | 36.7% | about 2.4% | – | – | OC[C@H]1O[C@@](CO)(O[C@H]2O[C@H](CO)[C@@H](O)[C@H](O)[C@H]2O)[C@@H](O)[C@@H]1O [sucrose, Sucrose]
2 | – | – | – | 0.78 g/mL | 0.68 g/mL | O=C(Oc1ccccc1)c1ccccc1O [phenyl salicylate, Phenyl salicylate]
